Consider 14 compounds from patent US20240383905A1, “FGFR INHIBITORS AND METHODS OF USE THEREOF” (3H PHARMACEUTICALS CO., LTD., priority 2021, published 2024).

pIC50: −log10 of the molar value.

The target of assay [1] is T1, FGFR1 (Homo sapiens, UniProt P11362).
T1 construct: purchased Carna 08-133
The experiment in a line: FGFR1 Biochemical Caliper Assay (KinEASE-TK kit). Particulars: ratio FGFR1/FGFR2 of the biochemical assay. On the procedure:
(§1) Compounds of the present invention were tested in a FGFR1, FGFR2, and FGFR3 Biochemical Caliper Assay. Enzyme activity was monitored using KinEASE-TK kit (CisBio, Cat.No. 62TK0PEC) according to manufacturer's instructions. […] Final enzyme concentration was 0.2 nM for FGFR1 and FGFR3, 0.07 nM for FGFR2. Compounds were prepared in 10 mM DMSO and serially diluted into 10 concentrations by 3-fold dilution. Prior to the initiation of the reaction by adding TK-substrate/ATP mixture, the compounds were incubated with protein for 10 min at RT. […] Plates were quenched by adding TK-antibody-Cryptate and Sa-XL665 mixture. After 60 min in the stop solution, read the signal on microplate reader (Molecular Devices, i3x), excitation of 320 nm and emission of 615 nm and 665 nm with a […]. IC50 values were calculated using Prism 7 (GraphPad).

For assay [2], the target named is T2, FGFR3 (Homo sapiens, UniProt P22607).
T2 construct: purchased Carna 08-135
T2 sequence (P22607 23-806): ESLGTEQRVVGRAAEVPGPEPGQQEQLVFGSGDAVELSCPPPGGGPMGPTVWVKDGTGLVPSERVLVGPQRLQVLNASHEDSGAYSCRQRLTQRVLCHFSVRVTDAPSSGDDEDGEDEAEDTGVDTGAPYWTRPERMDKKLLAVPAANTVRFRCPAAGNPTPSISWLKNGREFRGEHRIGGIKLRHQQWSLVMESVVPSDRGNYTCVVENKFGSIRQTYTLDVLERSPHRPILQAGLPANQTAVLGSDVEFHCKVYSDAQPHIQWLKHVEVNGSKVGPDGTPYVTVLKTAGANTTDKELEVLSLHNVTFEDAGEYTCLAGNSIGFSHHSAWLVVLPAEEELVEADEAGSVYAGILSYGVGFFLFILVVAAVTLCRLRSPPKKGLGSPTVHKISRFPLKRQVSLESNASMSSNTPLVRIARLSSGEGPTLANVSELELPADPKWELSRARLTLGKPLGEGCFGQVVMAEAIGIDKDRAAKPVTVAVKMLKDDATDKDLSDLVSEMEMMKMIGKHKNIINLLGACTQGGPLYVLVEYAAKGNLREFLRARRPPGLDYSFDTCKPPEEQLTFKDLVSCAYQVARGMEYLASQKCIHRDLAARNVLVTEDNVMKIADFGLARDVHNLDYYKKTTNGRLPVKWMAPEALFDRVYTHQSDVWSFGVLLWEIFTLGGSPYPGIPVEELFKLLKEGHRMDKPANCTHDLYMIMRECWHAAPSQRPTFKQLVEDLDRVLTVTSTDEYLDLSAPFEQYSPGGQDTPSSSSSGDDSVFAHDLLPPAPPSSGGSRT
The experiment in a line: FGFR3 Biochemical Caliper Assay (KinEASE-TK kit). The settings on record: ratio FGFR3/FGFR2 of the biochemical assay. The procedure: as §1

Assay [3] has as its system SNU16 cells. The experiment in a line: SNU16 Cancer Cell Line Proliferation Assay (CellTiter-Glo). The class given is cell-based. The settings on record: Homo sapiens, SNU-16, 72 h. On the procedure: Compounds of the present invention were also tested in a SNU16 Cancer Cell Line Proliferation Assay.
SNU16 cells were plated in 96-well clear bottom/white plate(Costar, Cat.No. 3610) at 5000 cells/well in 100 μl medium. Test compounds were prepared in a 10 mM DMSO stock solution and serially diluted into 9 concentrations by 3-fold dilution. 0.5 μl of each concentration of compound was added into the cell culture plates and DMSO as a control. The plates were incubated for 72 h at 37° C. and 5% CO2 incubator. 50 μl CellTiter-Glo reagent (Promega, G7572) was added into each well and then the plates were shaken gently for 10 min at room temperature. Luminescence was read on microplate reader (Molecular Devices, i3x), IC50 values were calculated using Prism 7 (GraphPad).
A general note: ATP-based viability assays read luminescence as a measure of living cells.

Assay [4] concerns the target T3, FGFR2 (Homo sapiens, UniProt P21802).
T3 construct: purchased Carna 08-134
Briefly: FGFR2 Biochemical Caliper Assay (KinEASE-TK kit). Particulars: 0.07 nM FGFR2; compound incubated with protein 10 min, reaction 45 min at RT; read-out: FGFR2 Cliper IC50. The procedure:
Compounds of the present invention were tested in a FGFR1, FGFR2, and FGFR3 Biochemical Caliper Assay.
as §1, with “Enzyme” for “Compounds of the present invention were tested in a FGFR1, FGFR2, and FGFR3 Biochemical Caliper Assay. Enzyme”

T1 sequence (P11362 22-822): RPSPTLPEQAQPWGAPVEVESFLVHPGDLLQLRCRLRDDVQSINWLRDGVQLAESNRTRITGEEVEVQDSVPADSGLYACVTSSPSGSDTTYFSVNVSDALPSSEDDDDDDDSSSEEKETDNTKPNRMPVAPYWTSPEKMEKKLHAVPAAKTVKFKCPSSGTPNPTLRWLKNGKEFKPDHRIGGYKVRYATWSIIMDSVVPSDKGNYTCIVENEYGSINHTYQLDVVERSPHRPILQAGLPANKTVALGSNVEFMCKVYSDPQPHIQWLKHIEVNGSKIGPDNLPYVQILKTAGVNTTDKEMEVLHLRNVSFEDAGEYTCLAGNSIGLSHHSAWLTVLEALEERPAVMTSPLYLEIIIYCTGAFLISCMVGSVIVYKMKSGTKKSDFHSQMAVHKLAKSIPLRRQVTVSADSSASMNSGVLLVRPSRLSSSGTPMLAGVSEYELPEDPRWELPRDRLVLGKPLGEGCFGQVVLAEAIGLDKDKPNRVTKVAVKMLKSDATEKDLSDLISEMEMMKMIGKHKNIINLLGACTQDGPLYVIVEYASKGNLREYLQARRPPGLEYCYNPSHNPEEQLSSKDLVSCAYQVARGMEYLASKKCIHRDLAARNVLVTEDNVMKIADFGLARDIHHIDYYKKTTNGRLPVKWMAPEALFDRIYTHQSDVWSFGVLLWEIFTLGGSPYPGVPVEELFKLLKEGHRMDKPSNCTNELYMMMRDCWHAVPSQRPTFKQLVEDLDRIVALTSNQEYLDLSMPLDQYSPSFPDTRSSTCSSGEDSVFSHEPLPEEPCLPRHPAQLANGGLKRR
T3 sequence (P21802 22-821): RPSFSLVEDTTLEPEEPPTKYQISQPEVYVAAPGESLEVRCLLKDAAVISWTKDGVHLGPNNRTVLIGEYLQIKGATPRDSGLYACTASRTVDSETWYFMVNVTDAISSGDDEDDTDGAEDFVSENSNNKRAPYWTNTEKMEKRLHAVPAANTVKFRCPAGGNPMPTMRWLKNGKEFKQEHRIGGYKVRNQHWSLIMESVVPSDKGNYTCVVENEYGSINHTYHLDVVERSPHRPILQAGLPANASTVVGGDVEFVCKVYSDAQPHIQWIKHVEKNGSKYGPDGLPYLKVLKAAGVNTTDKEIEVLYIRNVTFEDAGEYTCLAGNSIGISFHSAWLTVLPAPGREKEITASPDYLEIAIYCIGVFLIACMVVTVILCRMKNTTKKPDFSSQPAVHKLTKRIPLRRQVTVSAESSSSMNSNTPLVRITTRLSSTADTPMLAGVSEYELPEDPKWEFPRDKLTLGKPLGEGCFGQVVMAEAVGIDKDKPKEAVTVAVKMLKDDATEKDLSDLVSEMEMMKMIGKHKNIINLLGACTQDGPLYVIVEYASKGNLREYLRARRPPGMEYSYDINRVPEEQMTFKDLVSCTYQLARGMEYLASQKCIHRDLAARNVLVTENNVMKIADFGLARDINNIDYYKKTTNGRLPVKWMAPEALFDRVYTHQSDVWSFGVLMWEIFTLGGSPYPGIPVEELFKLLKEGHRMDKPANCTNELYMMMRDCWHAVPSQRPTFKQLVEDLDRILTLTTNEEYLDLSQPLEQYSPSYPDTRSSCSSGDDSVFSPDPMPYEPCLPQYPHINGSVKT

The term pIC50 denotes the IC50 on a negative log10 scale, so that one unit is a factor of ten. `C=CC(=O)Nc1ccc(-c2c(-c3ccc(C(=O)NC4CC(F)C4)c(OC)c3)c3c(N)ncc(C#N)c3n2C)cc1` (centres unmarked) [Compound 168, 4-(2-(4-acrylamidophenyl)-4-amino-7-cyano-1-methyl-1H-pyrrolo[3,2-c]pyridin-3-yl)-N-(3-fluorocyclobutyl)-2-methoxybenzamide]: the “Selectivity FGFR1/FGFR2” value in assay [1] is listed as “A+ (Selectivity of FGFR1/FGFR2 greater or equal to 500)”. For the same compound, the “Selectivity FGFR3/FGFR2” value in assay [2] is listed as “A+ (Selectivity of FGFR3/FGFR2 greater or equal to 150)”. Also, the figures for the pIC50 in assay [3] and in assay [4] were not below 8.00 and more than 8.30, respectively.

For `C=CC(=O)Nc1ccc(-c2nn3ncnc(N)c3c2-c2ccc(C(=O)NC3CCC3)c(C)c2)cc1` [Compound 74, 4-(6-(4-acrylamidophenyl)-4-aminopyrazolo[5,1-f][1,2,4]triazin-5-yl)-N-cyclobutyl-2-methylbenzamide], the “Selectivity FGFR1/FGFR2” value in assay [1] is on record as “C (Selectivity of FGFR1/FGFR2 less than 200 but greater than or equal to 100)”. Besides, the “Selectivity FGFR3/FGFR2” value in assay [2] is reported as “A+ (Selectivity of FGFR3/FGFR2 greater or equal to 150)”. The negative logarithm of the IC50 (pIC50) in assay [3] is not below 8.00; in assay [4], less than 8.00.

Consider `C=C(F)C(=O)Nc1ccc(-c2nn3ncnc(N)c3c2-c2ccc(C(=O)NC34CC(C3)C4)c(OC)c2)c(OC)c1` [Compound 426, 4-(4-amino-6-(4-(2-fluoroacrylamido)-2-methoxyphenyl)pyrazolo[5,1-f][1,2,4]triazin-5-yl)-N-(bicyclo[1.1.1]pentan-1-yl)-2-methoxybenzamide], for which, in assay [1], the “Selectivity FGFR1/FGFR2” value is reported as “A+ (Selectivity of FGFR1/FGFR2 greater or equal to 500)”. Further, the “Selectivity FGFR3/FGFR2” value in assay [2] is “A (Selectivity of FGFR3/FGFR2 less than 150 but greater than or equal to 100)”. For the same compound, the negative-log IC50 (pIC50) was not below 8.00 in assay [3] and more than 8.30 in assay [4].

Turning to `C=C(F)C(=O)Nc1ccc(-c2nn3ncnc(N)c3c2-c2ccc(C(=O)NC3CCC3)c(OC)c2)cc1` [Compound 95, 4-(4-amino-6-(4-(2-fluoroacrylamido)phe-nyl)pyrazolo[5,1-f][1,2,4]triazin-5-yl)-N-cyclobutyl-2-methoxybenzamide], the “Selectivity FGFR1/FGFR2” value in assay [1] was “A+ (Selectivity of FGFR1/FGFR2 greater or equal to 500)”. The “Selectivity FGFR3/FGFR2” value in assay [2] is recorded as “A+ (Selectivity of FGFR3/FGFR2 greater or equal to 150)”. The pIC50 is not below 8.00 in assay [3] and less than 8.00 in assay [4].

As for `C=C(C)C(=O)Nc1ccc(-c2nn3ncnc(N)c3c2-c2ccc(Oc3nccc(C)n3)c(F)c2)c(Cl)c1` [Compound 451], the “Selectivity FGFR1/FGFR2” value in assay [1] is listed as “A (Selectivity of FGFR1/FGFR2 less than 500 but greater than or equal to 300)”. Moreover, in assay [2], the “Selectivity FGFR3/FGFR2” value is “B (Selectivity of FGFR3/FGFR2 less than 100 but greater than or equal to 25)”. In addition, the pIC50 in assay [3] is not below 8.00; in assay [4], more than 8.30.

On to `C=CC(=O)Nc1ccc(-c2nn3ncnc(N)c3c2-c2ccc(C(=O)NCC(C)C)c(OC)c2)cc1` [Compound 81, 4-(6-(4-acrylamidophenyl)-4-aminopyrazolo[5,1-f] [1,2,4]triazin-5-yl)-N-isobutyl-2-methoxybenzamide], for which, in assay [1], the “Selectivity FGFR1/FGFR2” value is recorded as “A+ (Selectivity of FGFR1/FGFR2 greater or equal to 500)”. Further, the “Selectivity FGFR3/FGFR2” value in assay [2] is listed as “A+ (Selectivity of FGFR3/FGFR2 greater or equal to 150)”. The figures for the negative logarithm of the IC50 (pIC50) in assay [3] and in assay [4] were not below 8.00 and more than 8.30, respectively.

As for `C=C(F)C(=O)Nc1ccc(-c2nn3ncnc(N)c3c2-c2ccc(C(=O)NCC(F)(F)F)c(OC)c2)c(C)c1` [Compound 101, 4-(4-amino-6-(4-(2-fluoroacrylamido)-2-methylphenyl)pyrazolo[5,1-f][1,2,4]triazin-5-yl)-2-methoxy-N-(2,2,2-trifluoroethyl)benzamide], the “Selectivity FGFR1/FGFR2” value in assay [1] is given as “A+ (Selectivity of FGFR1/FGFR2 greater or equal to 500)”. Also, the “Selectivity FGFR3/FGFR2” value in assay [2] is listed as “B (Selectivity of FGFR3/FGFR2 less than 100 but greater than or equal to 25)”. For the same compound, the pIC50 was not below 8.00 in assay [3] and more than 8.30 in assay [4].

For `C=CC(=O)Nc1ccc(-c2nn3ncnc(N)c3c2-c2ccc(C(=O)NC3CCC3)c(OC)c2)cc1` [Compound 26, 4-(6-(4-acrylamidophenyl)-4-aminopyrazolo[5,1-f][1,2,4]triazin-5-yl)-N-cyclobutyl-2-methoxybenzamide], the “Selectivity FGFR1/FGFR2” value in assay [1] is on record as “A (Selectivity of FGFR1/FGFR2 less than 500 but greater than or equal to 300)”. In addition, in assay [2], the “Selectivity FGFR3/FGFR2” value is “B (Selectivity of FGFR3/FGFR2 less than 100 but greater than or equal to 25)”. Besides, the results for the negative-log IC50 (pIC50) in assay [3] and in assay [4] were not below 8.00 and more than 8.30, respectively.

For the compound `C=CC(=O)Nc1ccc(-c2c(-c3ccc(C(=O)NC4CC(F)(F)C4)c(OC)c3)c3c(N)ncc(C#N)c3n2C)cc1` [Compound 188, 4-(2-(4-acrylamidophenyl)-4-amino-7-cyano-1-methyl-1H-pyrrolo[3,2-c]pyridin-3-yl)-N-(3,3-difluorocyclobutyl)-2-methoxybenzamide], in assay [1], the “Selectivity FGFR1/FGFR2” value is given as “B (Selectivity of FGFR1/FGFR2 less than 300 but greater than or equal to 200)”. The “Selectivity FGFR3/FGFR2” value in assay [2] is on record as “B (Selectivity of FGFR3/FGFR2 less than 100 but greater than or equal to 25)”. The negative-log IC50 (pIC50) was not below 8.00 in assay [3] and more than 8.30 in assay [4].

As to `C=C(C)C(=O)Nc1ccc(-c2c(-c3ccc(Oc4nccc(C)n4)cc3)c3c(N)ncc(C#N)c3n2C)c(C)c1` [Compound 488, N-(4-(4-amino-7-cyano-1-methyl-3-(4-((4-methylpyrimidin-2-yl)oxy)phenyl)-1H-pyrrolo[3,2-c]pyridin-2-yl)-3-methylphenyl)methacrylamide], the “Selectivity FGFR1/FGFR2” value in assay [1] is on record as “A+ (Selectivity of FGFR1/FGFR2 greater or equal to 500)”. Also, the “Selectivity FGFR3/FGFR2” value in assay [2] is listed as “A+ (Selectivity of FGFR3/FGFR2 greater or equal to 150)”. In addition, the pIC50 in assay [3] is not below 8.00; in assay [4], less than 8.00.

With `C=CC(=O)Nc1ccc(-c2c(-c3ccc(C(=O)NCCF)c(OC)c3)c3c(N)ncc(C#N)c3n2C)cc1` [Compound 189, 4-(2-(4-acrylamidophenyl)-4-amino-7-cyano-1-methyl-1H-pyrrolo[3,2-c]pyridin-3-yl)-N-(2-fluoroethyl)-2-methoxybenzamide], in assay [1], the “Selectivity FGFR1/FGFR2” value is “B (Selectivity of FGFR1/FGFR2 less than 300 but greater than or equal to 200)”. For the same compound, the “Selectivity FGFR3/FGFR2” value in assay [2] is given as “B (Selectivity of FGFR3/FGFR2 less than 100 but greater than or equal to 25)”. Further, the pIC50 in assay [3] is not below 8.00; in assay [4] it was more than 8.30.

For `C=C(C)C(=O)Nc1ccc(-c2c(-c3ccc(Oc4nccc(C)n4)c(F)c3)c3c(N)ncc(C#N)c3n2C)c(Cl)c1` [Compound 473, N-(4-(4-amino-7-cyano-3-(3-fluoro-4-((4-methylpyrimidin-2-yl)oxy)phenyl)-1-methyl-1H-pyrrolo[3,2-c]pyridin-2-yl)-3-chlorophenyl)methacrylamide], the “Selectivity FGFR1/FGFR2” value in assay [1] is given as “A+ (Selectivity of FGFR1/FGFR2 greater or equal to 500)”. Also, the “Selectivity FGFR3/FGFR2” value in assay [2] is “A+ (Selectivity of FGFR3/FGFR2 greater or equal to 150)”. For the same compound, the pIC50 in assay [3] was not below 8.00; in assay [4] it was more than 8.30.

As for `C=CC(=O)Nc1ccc(-c2nn3ncnc(N)c3c2-c2ccc(C(=O)NC3CC(F)C3)c(OC)c2)cc1` (centres unmarked) [Compound 184, 4-(6-(4-acrylamidophenyl)-4-aminopyrazolo[5,1-f][1,2,4]triazin-5-yl)-N-(3-fluorocyclobutyl)-2-methoxybenzamide], the “Selectivity FGFR1/FGFR2” value in assay [1] is “A (Selectivity of FGFR1/FGFR2 less than 500 but greater than or equal to 300)”. The “Selectivity FGFR3/FGFR2” value in assay [2] is listed as “A+ (Selectivity of FGFR3/FGFR2 greater or equal to 150)”. In addition, the negative logarithm of the IC50 (pIC50) in assay [3] was not below 8.00; in assay [4] it was more than 8.30.

As for `C=C(F)C(=O)Nc1ccc(-c2nn3ncnc(N)c3c2-c2ccc(C(=O)NC3(C(F)(F)F)CC3)c(OC)c2)c(OC)c1` [Compound 415], the “Selectivity FGFR1/FGFR2” value in assay [1] was “B (Selectivity of FGFR1/FGFR2 less than 300 but greater than or equal to 200)”. Further, the “Selectivity FGFR3/FGFR2” value in assay [2] is “B (Selectivity of FGFR3/FGFR2 less than 100 but greater than or equal to 25)”. Also, the pIC50 in assay [3] is not below 8.00; in assay [4], more than 8.30.
